Laboratory results from ChEMBL document CHEMBL1150718, “Antineoplastic agents, 122. Constituents of Combretum caffrum” (1987).
Converted amounts (≈) assume the structure as drawn. The source made the active and inactive calls. No cut-off for these calls is given here.

Tests used:
[1] = test system: P388; experiment: Growth inhibition of mouse P388 cells; assay type: functional
[2] = test system: P388; experiment: In vivo cytotoxicity against mouse P388 cells at 5 mg/kg; assay type: functional, organism-based; parameters: dose 5 mg/kg
[3] = Cytotoxicity against rat 9ASK cells at 0.1 ug/ml; assay type: functional
[4] = Antimitotic activity against rat 9ASK cells assessed as reversal of astrocyte morphology at 0.1 ug/ml; assay type: functional
[5] = Antimitotic activity against rat 9ASK cells assessed as reversal of astrocyte morphology at 1 to 100 ug/ml; assay type: functional

EC50 ([1]; read-out: ED50 (the source's name))	SMILES	ED50 [1]	Activity [2]	Activity [3]	Activity [4]	Activity [5]
–	COc1cc2c(=O)oc3c(OC)c(O)cc4c(=O)oc(c1OC)c2c34	inactive	–	–	–	–
–	COc1ccc(-c2cc(=O)c3c(O)cc(O)cc3o2)cc1	inactive	–	–	–	–
0.011 µg/mL (≈ 0.0329 µM)	COc1ccc(C[C@@H](O)c2cc(OC)c(OC)c(OC)c2)cc1O [COMBRETASTATIN]	–	Active	0%	51%	71%
